Laboratory results as given in paper PMC11344421, “Polyphyllin I exerts anti-hepatocellular carcinoma activity by targeting ZBTB16 to activate the PPARγ/RXRα signaling pathway” (Chinese Medicine, 2024).

Target: T1, recombinant human (rh) ZBTB16 protein (Homo sapiens, UniProt Q05516)
T1 construct: recombinant human protein immobilised on sensor
T1 sequence (Q05516 1-673): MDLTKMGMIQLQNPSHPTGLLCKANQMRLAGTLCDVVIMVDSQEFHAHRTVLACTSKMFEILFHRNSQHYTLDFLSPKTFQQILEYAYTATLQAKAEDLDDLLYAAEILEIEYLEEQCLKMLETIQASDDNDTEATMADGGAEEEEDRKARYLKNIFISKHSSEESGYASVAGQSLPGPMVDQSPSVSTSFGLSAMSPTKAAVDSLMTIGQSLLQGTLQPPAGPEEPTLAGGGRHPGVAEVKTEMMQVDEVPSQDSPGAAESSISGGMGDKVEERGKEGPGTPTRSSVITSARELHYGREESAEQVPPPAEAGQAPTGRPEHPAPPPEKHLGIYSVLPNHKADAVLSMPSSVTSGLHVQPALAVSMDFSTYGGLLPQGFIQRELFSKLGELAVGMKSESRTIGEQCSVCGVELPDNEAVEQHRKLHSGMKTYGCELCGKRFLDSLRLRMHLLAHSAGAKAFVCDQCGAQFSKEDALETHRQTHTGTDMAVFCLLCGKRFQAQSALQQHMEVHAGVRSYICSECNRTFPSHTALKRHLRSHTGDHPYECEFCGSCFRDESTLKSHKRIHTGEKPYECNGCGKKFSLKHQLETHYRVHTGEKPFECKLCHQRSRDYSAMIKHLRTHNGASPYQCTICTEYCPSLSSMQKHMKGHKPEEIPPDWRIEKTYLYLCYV
Experiment: surface plasmon resonance (OpenSPR, ZBTB16 immobilised by EDC/NHS)
Format: binding

`C[C@@H]1CC[C@@]2(OC1)O[C@H]1C[C@H]3[C@@H]4CC=C5C[C@@H](O[C@@H]6O[C@H](CO)[C@@H](O[C@@H]7O[C@@H](CO)[C@H](O)[C@H]7O)[C@H](O)[C@H]6O[C@@H]6O[C@@H](C)[C@H](O)[C@@H](O)[C@H]6O)CC[C@]5(C)[C@H]4CC[C@]3(C)[C@H]1[C@@H]2C` [Polyphyllin I] was tested. Which Kd did it give?
Its Kd is 5.5 µM.
